# Data from patent publication US20050239720A1, “Combination of an agent that attenuates topoisomerase 1 activity and an agent that inhibits heat shock protein 90 for use in chemotherapy” (UNIVERSITY OF LIVERPOOL Senate House, priority 2002, published 2005).
# Tested on: HCT116 p53 WT cells and p53 KO cells
# Assay: Growth inhibition assay (sulforhodamine B)
# Format: cell-based, human
# Conditions: single drug alone; HCT116 p53 WT and p53 knockout cells; FIG. 4 and FIG. 5
# Description: The isogenic p53 human colon cancer cell line (WT and KO), HCT116 (see Hwang et al. Nat Med 2001 November 7(11):1255). Cells were maintained in McCoys 5A medium (Sigma) supplemented with 10% foetal calf serum (Gibco) at 37° C. in a 5% CO2 enriched humidified environment, Penicillin and Streptomycin. 96 well flat-bottomed plates were seeded with 3×10^3 cells per well and allowed to adhere overnight. Media was then replaced with fresh media alone (control) or containing test drugs e.g. 0-100 μM irinotecan, 50 to 200 nM geldanamycin (GA) and combinations of both. At fixed time points, cells were fixed with 3:1 methanol:acetic acid and stained with 0.4% w/v sulforhodamine B (Sigma) in 1% v/v acetic acid for 30 minutes. Plates were then washed twice with 1% v/v acetic acid, the dye solubilised with 100 μl per well of 10 mM Tris pH 10.4 and read at […] using a Benchmark microplate reader (BioRad). Drugs were used in the following concentrations for Growth inhibition and Clonogenic assays: [table]
row,SMILES,effect on cell growth
1,CCc1c2c(nc3ccc(OC(=O)N4CCC(N5CCCCC5)CC4)cc13)-c1cc3c(c(=O)n1C2)COC(=O)[C@]3(O)CC [Irinotecan],inhibitory effects
2,COC1=C2C[C@@H](C)C[C@H](OC)[C@H](O)[C@@H](C)/C=C(\C)[C@H](OC(N)=O)[C@@H](OC)/C=C\C=C(/C)C(=O)NC(=CC1=O)C2=O [Geldanamycin],inhibitory effects
